Here are results for 15 molecules from patent publication US6548096B1, “Aspartyl dipeptide ester derivatives and sweeteners” (Ajinomoto Co., Inc., priority 1998, dated 2003).

For test [1] the following is noted: as reported in WO 94/11391 (U.S. Pat. No. 5,480,668); cited from earlier work.
A short description of test [2]: Sensory evaluation of sweetening potency relative to sugar. It is filed as in vivo. The settings on record: for sweetening potency: Relative to sweetening potency of a 4% sucrose aqueous solution; for Sweetening potency (relative to sugar): times that of sugar, sensory evaluation. An excerpt: For example, the sweetening potency of N-[N-[3(3-methyl-4-hydroxyphenyl)propyl]-L-α-aspartyl]-L-phenylalanine 1-methyl ester was approximately 35,000 times that of sugar; that of N-[N-[3-(2-hydroxy-4-methylphenyl)propyl]-L-α-aspartyl]-L-α-phenylalanine 1-methyl ester was approximately 30,000 times that of sugar; that of N-[N-[3-(3-hydroxy-4-methoxyphenyl)propyl]-L-α-aspartyl]-L-phenylalanine 1-methyl ester was approximately 20,000 times that of sugar; that of N-[N-[3-(2-hydroxy-4-methoxyphenyl)propyl]-L-α-aspartyl]-L-phenylalanine 1-methyl ester was approximately 20,000 times that of sugar; that of N-[N-[3-(3-hydroxy-4-methylphenyl)propyl]-L-α-aspartyl]-L-phenylalanine 1-methyl ester was approximately 15,000 times that of sugar; that of N-(N-(3-(3-hydroxyphenyl)propyl]-L-α-aspartyl]-L-phenylalanine 1-methyl ester was approximately 8,000 times that of sugar; that of N-[N-(3-(4-methoxyphenyl)propyl]-L-α-aspartyl]-L-phenylalanine 1-methyl ester was approximately 6,500 times that of sugar; and that of N-(N-[3-(3-hydroxy-4-methoxyphenyl)propyl]-L-α-aspartyl]-L-tyrosine 1-methyl ester was approximately 16,000 times that of sugar.
The structures and the results of the sensory evaluation of aspartyl dipeptide derivatives represented by formula (2) are shown in Table 1. [drawing 3]

Where two headings read alike, the source gives them in different places.

`COC(=O)[C@H](Cc1ccccc1)NC(=O)[C@H](CC(=O)O)NCCCc1ccccc1` [N-[N-(3-phenylpropyl)-L-α-aspartyl]-L-phenylalanine-1-methyl ester]: the sweetening potency in test [1] was 1,500 times that of sugar.

In the case of `COC(=O)[C@H](Cc1ccccc1)NC(=O)[C@H](CC(=O)O)NCCC(C)(C)C` [N-[N-(3,3-dimethylbutyl)-L-α-aspartyl]-L-phenylalanine 1-methyl ester], the sweetening potency in test [1] is on record as 10,000 times that of sugar.

On to `COC(=O)[C@H](Cc1ccccc1)NC(=O)[C@H](CC(=O)O)NCCCc1ccc(O)c(C)c1` [Compound 16, N-[N-[3-(3-methyl-4-hydroxyphenyl)propyl]-L-α-aspartyl]-L-phenylalanine 1-methyl ester], for which, in test [2], the sweetening potency is 35000 and the “Sweetening potency (relative to sugar)” value was “approximately 35,000 times”. Further, the “Sweetening potency (relative to sugar)” value in test [2] (listed as Example 17) is reported as 35,000 times.

With `COC(=O)[C@H](Cc1ccccc1)NC(=O)[C@H](CC(=O)O)NCCCc1ccc(O)c(OC)c1` [N-[N-[3-(3-methoxy-4-hydroxyphenyl)propyl]-L-α-aspartyl]-L-phenylalanine 1-methyl ester], the sweetening potency in test [1] was 2,500 times that of sugar.

`CCOc1cc(OC)ccc1CCCN[C@@H](CC(=O)O)C(=O)N[C@@H](Cc1ccccc1)C(=O)OC` [Compound 15, N-[N-[3-(2-Ethoxy-4-methoxyphenyl)propyl]-L-α-aspartyl]-L-phenylalanine 1-Methyl Ester]: in test [2], the sweetening potency worked out at 2500 and the “Sweetening potency (relative to sugar)” value is reported as 2,500 times.

As to `COC(=O)[C@H](Cc1ccccc1)NC(=O)[C@H](CC(=O)O)NCCCc1ccc(OCCO)cc1` [Compound 20, N-[N-[3-(4-(2-Hydroxyethoxy)phenyl)propyl]-L-α-aspartyl]-L-phenylalanine 1-Methyl Ester], in test [2], the sweetening potency came out at 1000 and the “Sweetening potency (relative to sugar)” value is 1,000 times.

For the molecule `COC(=O)[C@H](Cc1ccccc1)NC(=O)[C@H](CC(=O)O)NCCCc1cccc(OC)c1` [Compound 8, N-[N-[3-(3-Methoxyphenyl)propyl]-L-α-aspartyl]-L-phenylalanine 1-Methyl Ester], in test [2], the sweetening potency is recorded as 3500 and the “Sweetening potency (relative to sugar)” value is listed as 3,500 times.

As for `COC(=O)[C@H](Cc1ccccc1)NC(=O)[C@H](CC(=O)O)NCCCc1ccc(OC)c(OC)c1` [Compound 2, N-[N-[3-(3,4-dimethoxyphenyl)propyl]-L-α-aspartyl]-L-phenylalanine 1-methyl ester], in test [2], the sweetening potency came out at 2500 and the “Sweetening potency (relative to sugar)” value is recorded as 2,500 times.

In turn, `COC(=O)[C@H](Cc1ccccc1)NC(=O)[C@H](CC(=O)O)NCCCc1ccc(C)cc1O` [Compound 13, N-[N-[3-(2-hydroxy-4-methylphenyl)propyl]-L-α-aspartyl]-L-phenylalanine 1-methyl ester] had a sweetening potency in test [2] of 30000. Also, the “Sweetening potency (relative to sugar)” value in test [2] (listed as Example 14) is 30,000 times; in test [2] (listed as N-[N-[3-(2-hydroxy-4-methylphenyl)propyl]-L-α-aspartyl]-L-α-phenylalanine 1-meth), “approximately 30,000 times”.

For the molecule `COC(=O)[C@H](Cc1ccccc1)NC(=O)[C@H](CC(=O)O)NCCCc1ccc(OC)c(C)c1` [Compound 18, N-[N-[3-(3-methyl-4-methoxyphenyl)propyl]-L-α-aspartyl]-L-phenylalanine 1-methyl ester], in test [2], the sweetening potency is 8000 and the “Sweetening potency (relative to sugar)” value is given as 8,000 times.

`COC(=O)[C@H](Cc1ccccc1)NC(=O)[C@H](CC(=O)O)NCCCc1ccc(O)cc1` [Compound 4, N-[N-[3-(4-hydroxyphenyl)propyl]-L-α-aspartyl]-L-phenylalanine 1-methyl ester]: in test [2], the sweetening potency is on record as 5000 and the “Sweetening potency (relative to sugar)” value was 5,000 times.

`COC(=O)[C@H](Cc1ccccc1)NC(=O)[C@H](CC(=O)O)NCCCc1ccc(OC)c(O)c1` [Compound 1, N-[N-[3-(3-hydroxy-4-methoxyphenyl)propyl]-L-α-aspartyl]-L-phenylalanine 1-methyl ester] yielded a sweetening potency in test [2] of 20000. The “Sweetening potency (relative to sugar)” value in test [2] (listed as Example 1) is 20,000 times.

As to `COC(=O)[C@H](Cc1ccccc1)NC(=O)[C@H](CC(=O)O)NCCCc1cccc(OC)c1O` [Compound 11, N-[N-[3-(2-hydroxy-3-methoxyphenyl)propyl]-L-α-aspartyl]-L-phenylalanine 1-methyl ester], in test [2], the sweetening potency was 10000 and the “Sweetening potency (relative to sugar)” value was 10,000 times.

Consider `COC(=O)[C@H](Cc1ccc(O)cc1)NC(=O)[C@H](CC(=O)O)NCCCc1ccc(OC)c(O)c1` [Compound 9, N-[N-[3-(3-hydroxy-4-methoxyphenyl)propyl]-L-α-aspartyl]-L-tyrosine 1-methyl ester], for which, in test [2], the sweetening potency is listed as 16000 and the “Sweetening potency (relative to sugar)” value is reported as “approximately 16,000 times”. For the same molecule, the “Sweetening potency (relative to sugar)” value in test [2] (listed as Example 10) was 16,000 times.

On to `CCOc1ccc(CCCN[C@@H](CC(=O)O)C(=O)N[C@@H](Cc2ccccc2)C(=O)OC)cc1` [Compound 6, N-[N-[3-(4-Ethoxyphenyl)propyl]-L-α-aspartyl]-L-phenylalanine 1-Methyl Ester], for which, in test [2], the sweetening potency came to 1500 and the “Sweetening potency (relative to sugar)” value is 1,500 times.
